Test results taken from US20090299034A1, “Collagen-related peptides” (priority 2007, published 2009).
Blank lines part the entries; values can stand above or below the compound they belong to.

Assays:
washed platelets [1] = experiment: Inhibition of platelet aggregation induced by collagen or CRP trimer SEQ ID 145; assay type: cell-based, human; settings: GPIIb/IIIa antagonist at 10, 100 and 1000 nM, 5 min pre-incubation
washed platelets [2] = experiment: Human platelet aggregation assay; assay type: cell-based; settings: for EC50 ± SEM platelet aggregation: Table 3
Description: Human platelet-rich plasma (PRP) concentrate from healthy volunteers was purchased from Biological Specialties, Inc. (Colmar, Pa.). […] The PRP was centrifuged at 730 g for 15 min. The resulting platelet pellet was washed twice in CGS buffer (13 mM sodium citrate, 30 mM glucose, 120 mM NaCl, pH 6.5) containing 1 U/mL apyrase (grade V, Sigma-Aldrich) and resuspended in Tyrode's buffer (140 mM NaCl, 2.7 mM KCl, 12 mM NaHCO3, 0.76 mM Na2HPO4, 5.5 mM dextrose, 5.0 mM Hepes, 0.2% BSA, pH 7.4). The “washed” platelets were diluted to 3×10^8 platelets/mL and kept >45 min at 37° C. before use.
For the assay, 105 μL of washed platelets, 2 mM CaCl2 and […] of fibrinogen were added to a 96-well microtiter plate. Platelet aggregation was initiated by the addition of serial concentrations of native collagen fibrils (equine type I; 92% identity with human collagen sequence; Chrono-log Corp., Havertown, Pa.) or test peptides. Buffer was added to one set of control wells. The assay plate was stirred constantly and intermittently placed in a microplate reader (Softmax, Molecular Devices, Menlo Park, Calif.) to read optical density (650 nm) at 0 and 5 min after the addition of the compound solutions. Aggregation was calculated as the decrease in optical density between the time-0 and 5-min measurements and expressed as percent of aggregation.
Peptides were dissolved in PBS (pH 7) or water (final pH 5) to a concentration of 2 mg/mL. Some samples were heated in a water bath (70° C.) for 10 min, filtered through a 0.45-μm filter and incubated for 24 h or 7 days at 4° C. […] (H+F) and re-annealed at 4° C.

Compound: O=C(O)C[C@H](NC(=O)[C@@H]1CCCN(C(=O)CCC2CCNCC2)C1)c1cccnc1 [elarofiban]
inhibition of platelet aggregation induced by CRP trimer having SEQ ID 145 (washed platelets [1]): dose-dependent inhibition
inhibition of platelet aggregation induced by collagen (washed platelets [1]): dose-dependent inhibition

EC50 ± SEM platelet aggregation (washed platelets [2]; PBS, H + F, pH 7, incubation 24 h): Not Active
Compound: (Pro-Xaa-Gly)10 [SEQ ID 154]
induction of platelet aggregation (washed platelets [2]; Example 4): failed to aggregate platelets
stimulation of platelet aggregation (washed platelets [2]; Example 6, FIG. 1): not effective

EC50 values (±SEM) platelet aggregation (washed platelets [2]; Example 6, FIG. 1, Table 4): 0.56 ± 0.09 mg/L
EC50 ± SEM platelet aggregation (washed platelets [2]; native collagen fibrils, no peptide preparation): 0.25 mg/L
Compound: Collagen
